# Source: patent publication US20050239656A1, “Pyridine compounds or salts thereof and herbicides containing the same” (priority 2002, published 2005)
# System: velvetleaf
# Assay: Test Example 2: soil surface treatment, upland pot test
# Type: in vivo, Abutilon theophrasti MEDIC.
# Conditions: active ingredient 250 g/ha, observed 20th to 28th day
# Summary of the method: (§1)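 Pre-emergence: the soil surface was sprayed 1 day after sowing with wettable powder or emulsifiable concentrate diluted in water at 1,500 L/ha, at a predetermined active ingredient amount. Growth control was scored visually 20–28 days after treatment, 0 (untreated) to 100 (complete kill).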
row,SMILES,Growth controlling degree (%) Velvetleaf [%]
1,CC(C)C(c1cnccc1C(F)(F)F)N(C)C(=O)C1CC1 (stereo not drawn) [Compound I-204],70

# Same assay, conditions: active ingredient 500 g/ha, observed 20th to 28th day
row,SMILES,Growth controlling degree (%) Velvetleaf [%]
1,CC(C)C(c1cnccc1Cl)N(C)C(=O)Cc1ccccc1 (stereo not drawn) [I-22],70
2,CC(C)C(Br)C(=O)N(C)C(c1cnccc1C(F)(F)F)C(C)C (stereo not drawn) [Compound I-197],50

# System: barnyardgrass
# Assay: as above
# Type: in vivo, Echinochloa crus-galli L.
# Conditions: active ingredient 250 g/ha, observed 20th to 28th day
# Summary of the method: as §1
row,SMILES,Growth controlling degree (%) Barnyardgrass [%]
1,CC(C)C(c1cnccc1C(F)(F)F)N(C)C(=O)C1CC1 (stereo not drawn) [Compound I-204],100

# Same assay, conditions: active ingredient 500 g/ha, observed 20th to 28th day
row,SMILES,Growth controlling degree (%) Barnyardgrass [%]
1,CC(C)C(c1cnccc1Cl)N(C)C(=O)Cc1ccccc1 (stereo not drawn) [I-22],90
2,CC(C)C(Br)C(=O)N(C)C(c1cnccc1C(F)(F)F)C(C)C (stereo not drawn) [Compound I-197],100

# System: rice (var. Nihonbare)
# Assay: Test Example 3: paddy pot test, transplanted rice
# Type: in vivo, Oryza sativa L.
# Conditions: active ingredient 250 g/ha, applied 4th day after transplantation, visually observed 21st day after application, 0 = non-treated, 100 = complete kill
# Summary of the method: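 Visual crop-injury rating (0 = as untreated, 100 = complete kill, %) taken 21 days post-application. Treatment: formulated compound, water-diluted, pipetted into 3–4 cm flood water at a preset active-ingredient dose, 4 days after transplanting 2-leaf Nihonbare rice 3 cm deep in puddled paddy soil.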
row,SMILES,Growth controlling degree (%) Rice [%]
1,CC(C)C(Br)C(=O)N(C)C(c1cnccc1C(F)(F)F)C(C)C (stereo not drawn) [Compound I-197],0
2,CC(C)C(c1cnccc1C(F)(F)F)N(C)C(=O)C1CC1 (stereo not drawn) [Compound I-204],60

# Same assay, conditions: active ingredient 500 g/ha, applied 4th day after transplantation, visually observed 21st day after application, 0 = non-treated, 100 = complete kill
row,SMILES,Growth controlling degree (%) Rice [%]
1,CC(C)C(c1cnccc1Cl)N(C)C(=O)Cc1ccccc1 (stereo not drawn) [I-22],0

# System: japanese bulrush
# Assay: Test Example 3: paddy pot test, application under submerged conditions
# Type: in vivo, Scirpus juncoides
# Conditions: active ingredient 250 g/ha; submerged application at 0.5 leaf stage; visually observed 14 days after application; 0 = non-treated, 100 = complete kill
# Summary of the method: (§2)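 Paddy soil pots; seeds sown, lightly covered; flooded 0.5–1 cm in greenhouse; wapato tubers planted day 1–2; flood raised to 3–4 cm. Submerged pipette application at 0.5 leaf / primary leaf stage. Visual score day 14, 0–100%.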
row,SMILES,Growth controlling degree (%) Japanese bulrush [%]
1,CC(C)C(Br)C(=O)N(C)C(c1cnccc1C(F)(F)F)C(C)C (stereo not drawn) [Compound I-197],98
2,CC(C)C(c1cnccc1C(F)(F)F)N(C)C(=O)C1CC1 (stereo not drawn) [Compound I-204],98

# Same assay, conditions: active ingredient 500 g/ha; submerged application at 0.5 leaf stage; visually observed 14 days after application; 0 = non-treated, 100 = complete kill
row,SMILES,Growth controlling degree (%) Japanese bulrush [%]
1,CC(C)C(c1cnccc1Cl)N(C)C(=O)Cc1ccccc1 (stereo not drawn) [I-22],95

# System: japanese ribbon wapato
# Assay: as above
# Type: in vivo, Sagittaria pygniaea
# Conditions: active ingredient 500 g/ha; submerged application at primary leaf stage; visually observed 14 days after application; 0 = non-treated, 100 = complete kill
# Summary of the method: as §2
row,SMILES,Growth controlling degree (%) Japanese ribbon wapato [%]
1,CC(C)C(c1cnccc1Cl)N(C)C(=O)Cc1ccccc1 (stereo not drawn) [I-22],95

# System: redroot pigweed
# Assay: Test Example 2: soil surface treatment, upland pot test
# Type: in vivo, Amaranthus retroflexus L.
# Conditions: active ingredient 250 g/ha, observed 20th to 28th day
# Summary of the method: as §1
row,SMILES,Growth controlling degree (%) Redroot pigweed [%]
1,CC(C)C(c1cnccc1C(F)(F)F)N(C)C(=O)C1CC1 (stereo not drawn) [Compound I-204],95

# Same assay, conditions: active ingredient 500 g/ha, observed 20th to 28th day
row,SMILES,Growth controlling degree (%) Redroot pigweed [%]
1,CC(C)C(c1cnccc1Cl)N(C)C(=O)Cc1ccccc1 (stereo not drawn) [I-22],90
2,CC(C)C(Br)C(=O)N(C)C(c1cnccc1C(F)(F)F)C(C)C (stereo not drawn) [Compound I-197],90

# System: wheat
# Assay: as above
# Type: in vivo, Triticum spp.
# Conditions: active ingredient 250 g/ha, observed 20th to 28th day
# Text: Upland field soil was put into a 1/170,000 ha pot, and seed of various plants (barnyardgrass, crabgrass, green foxtail, redroot pigweed, prickly sida, velvetleaf, rice, wheat, corn, soybean) were sown. On the 1st day after the sowing, a wettable powder or emulsifiable concentrate having the compound of the present invention formulated in accordance with a usual formulation method, was weighed so that the active ingredient would be a predetermined amount, and diluted with water in an amount of 1,500 L/ha. The herbicide thus adjusted was applied by a small size sprayer for soil surface treatment. On the 20th to 28th days after the application of the herbicide, the growth of the respective plants was visually observed, and the herbicidal effects were evaluated by the growth controlling degrees (%) ranging from 0 (equivalent to the non-treated plot) to 100 (complete kill), whereby the results shown in Table 4, were obtained.
row,SMILES,Growth controlling degree (%) wheat [%]
1,CC(C)C(c1cnccc1C(F)(F)F)N(C)C(=O)C1CC1 (stereo not drawn) [Compound I-204],95

# Same assay, conditions: active ingredient 500 g/ha, observed 20th to 28th day
row,SMILES,Growth controlling degree (%) wheat [%]
1,CC(C)C(c1cnccc1Cl)N(C)C(=O)Cc1ccccc1 (stereo not drawn) [I-22],30
2,CC(C)C(Br)C(=O)N(C)C(c1cnccc1C(F)(F)F)C(C)C (stereo not drawn) [Compound I-197],50

# System: rice
# Assay: as above
# Type: in vivo, Oryza sativa L.
# Conditions: active ingredient 250 g/ha, observed 20th to 28th day
# Summary of the method: as §1
row,SMILES,Growth controlling degree (%) Rice [%]
1,CC(C)C(c1cnccc1C(F)(F)F)N(C)C(=O)C1CC1 (stereo not drawn) [Compound I-204],100

# Same assay, conditions: active ingredient 500 g/ha, observed 20th to 28th day
row,SMILES,Growth controlling degree (%) Rice [%]
1,CC(C)C(c1cnccc1Cl)N(C)C(=O)Cc1ccccc1 (stereo not drawn) [I-22],10
2,CC(C)C(Br)C(=O)N(C)C(c1cnccc1C(F)(F)F)C(C)C (stereo not drawn) [Compound I-197],40

# System: prickly sida
# Assay: as above
# Type: in vivo, Sida spinosa L.
# Conditions: active ingredient 250 g/ha, observed 20th to 28th day
# Summary of the method: as §1
row,SMILES,Growth controlling degree (%) Prickly sida [%]
1,CC(C)C(c1cnccc1C(F)(F)F)N(C)C(=O)C1CC1 (stereo not drawn) [Compound I-204],95

# Same assay, conditions: active ingredient 500 g/ha, observed 20th to 28th day
row,SMILES,Growth controlling degree (%) Prickly sida [%]
1,CC(C)C(c1cnccc1Cl)N(C)C(=O)Cc1ccccc1 (stereo not drawn) [I-22],70
2,CC(C)C(Br)C(=O)N(C)C(c1cnccc1C(F)(F)F)C(C)C (stereo not drawn) [Compound I-197],70

# System: crabgrass
# Assay: as above
# Type: in vivo, Digitaria sanguinalis L.
# Conditions: active ingredient 250 g/ha, observed 20th to 28th day
# Summary of the method: as §1
row,SMILES,Growth controlling degree (%) Crabgrass [%]
1,CC(C)C(c1cnccc1C(F)(F)F)N(C)C(=O)C1CC1 (stereo not drawn) [Compound I-204],100

# Same assay, conditions: active ingredient 500 g/ha, observed 20th to 28th day
row,SMILES,Growth controlling degree (%) Crabgrass [%]
1,CC(C)C(c1cnccc1Cl)N(C)C(=O)Cc1ccccc1 (stereo not drawn) [I-22],95
2,CC(C)C(Br)C(=O)N(C)C(c1cnccc1C(F)(F)F)C(C)C (stereo not drawn) [Compound I-197],100

# System: green foxtail
# Assay: as above
# Type: in vivo, Setaria viridis L.
# Conditions: active ingredient 250 g/ha, observed 20th to 28th day
# Summary of the method: as §1
row,SMILES,Growth controlling degree (%) Green foxtail [%]
1,CC(C)C(c1cnccc1C(F)(F)F)N(C)C(=O)C1CC1 (stereo not drawn) [Compound I-204],100

# Same assay, conditions: active ingredient 500 g/ha, observed 20th to 28th day
row,SMILES,Growth controlling degree (%) Green foxtail [%]
1,CC(C)C(c1cnccc1Cl)N(C)C(=O)Cc1ccccc1 (stereo not drawn) [I-22],90
2,CC(C)C(Br)C(=O)N(C)C(c1cnccc1C(F)(F)F)C(C)C (stereo not drawn) [Compound I-197],100

# System: corn
# Assay: as above
# Type: in vivo, Zea mays L.
# Conditions: active ingredient 250 g/ha, observed 20th to 28th day
# Summary of the method: as §1
row,SMILES,Growth controlling degree (%) Corn [%]
1,CC(C)C(c1cnccc1C(F)(F)F)N(C)C(=O)C1CC1 (stereo not drawn) [Compound I-204],70

# Same assay, conditions: active ingredient 500 g/ha, observed 20th to 28th day
row,SMILES,Growth controlling degree (%) Corn [%]
1,CC(C)C(c1cnccc1Cl)N(C)C(=O)Cc1ccccc1 (stereo not drawn) [I-22],20
2,CC(C)C(Br)C(=O)N(C)C(c1cnccc1C(F)(F)F)C(C)C (stereo not drawn) [Compound I-197],20

# System: barnyardgrass
# Assay: Test Example 3: paddy pot test, application under submerged conditions
# Type: in vivo, Echinochloa crus-galli L.
# Conditions: active ingredient 250 g/ha; submerged application at 0.5 leaf stage; visually observed 14 days after application; 0 = non-treated, 100 = complete kill
# Summary of the method: as §2
row,SMILES,Growth controlling degree (%) Barnyardgrass [%]
1,CC(C)C(Br)C(=O)N(C)C(c1cnccc1C(F)(F)F)C(C)C (stereo not drawn) [Compound I-197],100
2,CC(C)C(c1cnccc1C(F)(F)F)N(C)C(=O)C1CC1 (stereo not drawn) [Compound I-204],100

# System: soybean
# Assay: Test Example 2: soil surface treatment, upland pot test
# Type: in vivo, Glycine max Merr.
# Conditions: active ingredient 250 g/ha, observed 20th to 28th day
# Summary of the method: as §1
row,SMILES,Growth controlling degree (%) Soyabean [%]
1,CC(C)C(c1cnccc1C(F)(F)F)N(C)C(=O)C1CC1 (stereo not drawn) [Compound I-204],70

# Same assay, conditions: active ingredient 500 g/ha, observed 20th to 28th day
row,SMILES,Growth controlling degree (%) Soyabean [%]
1,CC(C)C(c1cnccc1Cl)N(C)C(=O)Cc1ccccc1 (stereo not drawn) [I-22],10
2,CC(C)C(Br)C(=O)N(C)C(c1cnccc1C(F)(F)F)C(C)C (stereo not drawn) [Compound I-197],10
